Test results as given in publication PMC2810428 (Journal of medicinal chemistry, 2010).

Experiments:
WTβIII = WTβIII vs HeLa pair; ref [32]; cited from earlier work
SK-OV-3-MDR 1–6/6 = SK-OV-3-MDR 1–6/6 vs SK-OV-3 pair; ref [32]; cited from earlier work
L1210 and B16 cells = conditions: read-out: reported IC50 values for L1210 and B16 cells; ref [3]–[5]; cited from earlier work
L1210 cells = test: Inhibition of L1210 cell growth; assay type: cell-based, murine; conditions: L1210 IC50, 9b versus 9a
MDA-MB-435 cells = test: Cell cycle analysis by flow cytometry; assay type: cell-based, human; conditions: paclitaxel positive control (0.0125 µM), data not shown

Structure (SMILES) | Rr (relative resistance) (WTβIII) | Rr (relative resistance) (SK-OV-3-MDR 1–6/6) | IC50 (L1210 and B16 cells) | fold decrease in potency on shifting nitro group to the 3’ position (L1210 cells) | cell cycle distribution (MDA-MB-435 cells)
COc1cc2c(cc1O)CC[C@@H]1[C@@H]2CC[C@]2(C)[C@@H](O)CC[C@@H]12 [2-methoxyestradiol] | 1.0 | 2.6 | – | – | –
COc1ccc(/C=C\c2cc(OC)c(OC)c(OC)c2)cc1O [Compound 1, Combretastatin A-4] | – | – | 3 to 7 nM | – | –
COc1cc(C2=NN(C(C)=O)C(c3cccc([N+](=O)[O-])c3)O2)cc(OC)c1OC (stereo not shown) [Compound 9b] | – | – | – | 9 fold | –
CC(=O)O[C@H]1C(=O)[C@@]2(C)[C@H]([C@H](OC(=O)c3ccccc3)[C@]3(O)C[C@H](OC(=O)[C@H](O)[C@@H](NC(=O)c4ccccc4)c4ccccc4)C(C)=C1C3(C)C)[C@]1(OC(C)=O)CO[C@@H]1C[C@@H]2O [paclitaxel] | 4.7 | 860 | – | – | identical effect
